{"source": "paper PMC3098923", "about": "(Bioorganic & medicinal chemistry letters, 2011)", "key": {"human TLR7": {"target": "T1, human TLR7 (Homo sapiens, UniProt Q9NYK1)", "T1 sequence (Q9NYK1 27-1049)": "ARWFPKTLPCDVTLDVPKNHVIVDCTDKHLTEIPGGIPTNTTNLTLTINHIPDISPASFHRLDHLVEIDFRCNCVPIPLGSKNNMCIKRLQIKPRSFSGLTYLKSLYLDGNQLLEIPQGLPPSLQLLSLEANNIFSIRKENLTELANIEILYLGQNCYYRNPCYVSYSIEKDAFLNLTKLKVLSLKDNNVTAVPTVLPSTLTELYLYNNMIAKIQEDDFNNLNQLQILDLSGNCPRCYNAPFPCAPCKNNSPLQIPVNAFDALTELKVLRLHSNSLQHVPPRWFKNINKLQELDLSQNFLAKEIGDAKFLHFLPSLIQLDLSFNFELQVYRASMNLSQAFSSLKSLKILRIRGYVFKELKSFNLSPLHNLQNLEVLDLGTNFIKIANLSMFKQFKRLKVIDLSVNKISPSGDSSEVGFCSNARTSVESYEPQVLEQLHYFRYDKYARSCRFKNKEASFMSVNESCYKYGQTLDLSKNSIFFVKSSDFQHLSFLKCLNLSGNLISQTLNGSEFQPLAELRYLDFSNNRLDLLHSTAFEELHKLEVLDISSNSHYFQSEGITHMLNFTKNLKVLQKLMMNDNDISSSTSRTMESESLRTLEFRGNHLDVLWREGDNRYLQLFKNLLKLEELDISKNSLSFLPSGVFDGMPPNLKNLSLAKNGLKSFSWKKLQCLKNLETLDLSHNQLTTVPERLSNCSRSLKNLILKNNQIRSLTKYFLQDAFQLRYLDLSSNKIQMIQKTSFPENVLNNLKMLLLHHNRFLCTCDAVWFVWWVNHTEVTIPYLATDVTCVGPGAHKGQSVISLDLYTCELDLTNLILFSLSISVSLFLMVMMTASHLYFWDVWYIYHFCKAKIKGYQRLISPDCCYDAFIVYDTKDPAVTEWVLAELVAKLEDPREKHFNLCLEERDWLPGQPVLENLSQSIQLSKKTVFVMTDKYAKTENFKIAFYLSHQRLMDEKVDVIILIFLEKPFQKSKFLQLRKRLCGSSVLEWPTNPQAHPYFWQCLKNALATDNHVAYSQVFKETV", "assay": "human TLR7-specific reporter gene assay", "type": "cell-based"}, "human PBMCs": {"tested_on": "human PBMCs", "assay": "Induction of IFN-α, IFN-γ, IL-12 and IL-18 in human PBMCs, ELISA", "type": "cell-based"}, "aqueous solubility": {"assay": "aqueous solubility", "type": "physicochemical"}}, "data": [{"compound": "CCCCc1nc2c(N)nc3ccccc3c2n1Cc1ccc(CNC(=S)NCC(=O)NCC(=O)NCC(=O)OC)cc1", "note": "[compound 3]", "values": [{"measurement": "TLR7-agonistic activity (in words)", "setting": "human TLR7", "value": "active"}]}, {"compound": "CCCCc1nc2c(N)nc3ccccc3c2n1Cc1ccc(CNC(=O)CCN2C(=O)CC(SC[C@@H](NC(=O)CC[C@@H](N)C(=O)O)C(=O)NCC(=O)O)C2=O)cc1", "note": "(stereo partly shown) [6a]", "values": [{"measurement": "TLR7-agonistic activity (in words)", "setting": "human TLR7", "value": "completely inactive"}]}, {"compound": "CCCCc1nc2c(N)nc3ccccc3c2n1Cc1ccc(CN)cc1", "note": "[compound 1]", "values": [{"measurement": "Th1-biased cytokine induction (IFN-α, IFN-γ, IL-12, IL-18)", "setting": "human PBMCs", "value": "prominent Th1 bias"}, {"measurement": "aqueous solubility", "setting": "aqueous solubility", "value": "excellent"}]}]}
